# According to patent publication EP0314302A2, “Herbicidal o-carbomethoxy-sulfonylureas” (E.I. DU PONT DE NEMOURS AND COMPANY, priority 1987, dated 1989):
# Key:
# Chickweed = test: Test 10 postemergence safety to crops and weed control; format: in vivo, Stellaria media; conditions: 16 g/ha, scale 0-100
# Protocol: The object of these tests was to evaluate the compound of this invention for postemergence safety to crops and weed control. Seedling and budded Macedine grapes were grown in 11.4-cm pots. Flax, green foxtail (Setaria viridis), "Morex" barley, wild oats (Avena fatua), "Era" wheat, annual ryegrass (Lolium multiflorum), wild radish (Raphanus raphanistrum), rape, sunflower, chickweed (Stellaria media) and wild buckwheat (Polygonum convolvulus) were seeded in windowsill pots.
# The plants were sprayed postemergence with Compound I in a non-phytotoxic solvent. Plants were visually rated 15 and 27 days after treatment (DAT). Injury and weed control ratings were based on the scale of 0 to 100 where 0 = no effect, 20 minimal control and 100 = complete control.
# Sandbur = test: Test 11 windowsill flats, postemergence; format: in vivo, Cenchrus echinatus; conditions: Postemergence 32 g/ha, 0.25% X-77 surfactant, scale 0-100
# Protocol: Budded citrus seedlings were planted in 30-liter plastic pots which were also seeded with sandbur, guineagrass, narrowleaf panicum, common ragweed, yellow nutsedge, purple nutsedge and bindweed. Compound I was applied preemergence and postemergence to the weeds. Treatments were sprayed to simulate the trunk-to-trunk herbicide application method used in some citrus groves. The compound was also applied postemergence to weeds grown in windowsill flats. The flats were filled with planting medium and seeded with morningglory (Ipomoea spp.). purple nutsedge (Cyperus rotundus), pigweed (Amaranthus spp.), bindweed (Convolvulus spp.), narrowleaf panicum (Panicum maximum), common ragweed (Ambrosia artemisiifolia), sandbur (Cenchrus echinatus), itchgrass (Rottboellia exaltata), johnsongrass (Sorghum halepense), guineagrass (Panicum maximum), smooth crabgrass (Digitaria ischaemum), broadleaf signalgrass (Brachiaria platyphylla), bermudagrass (Cynodon dactylon), goosegrass (Eleusine indica), large crabgrass (Digitaria sanguinalis) and yellow nutsedge (Cyperus esculentus).
# The compound was formulated and sprayed with 0.25% X-77 surfactant in water. Plants were visually rated 21 and 29 days after treatment and compared with appropriate controls. Injury ratings were based on the scale of 0 to 100, where 0 indicates no effect, 20 indicates minimum effect and 100 indicates complete control. […]
# Purple nutsedge = test: Test 8 postemergence safety to pineapple, turfs and weed control; format: in vivo; conditions: scale 0-100
# From the text: (§1) The object of this test was to evaluate the compound of this invention for postemergence safety to pineapple, turfs and weed control. Climax timothy, Kentucky bluegrass, forage fescue, Kentucky fescue, bermudagrass, bentgrass, annual bluegrass, bahiagrass, purple nutsedge, yellow nutsedge, large crabgrass, perennial ryegrass, annual ryegrass, galium and pineapple were sprayed postemergence with the compound in a non-phytotoxic solvent. Plants were visually rated 36 days after treatment (DAT). Injury ratings were based on the scale of 0 to 100 where 0 = no effect, 20 = minimal effect and 100 = complete control.
# Kentucky bluegrass = test: as above; format: in vivo; conditions: scale 0-100
# From the text: as §1
# Yellow nutsedge = test: as above; format: in vivo; conditions: scale 0-100
# From the text: as §1
# Galium = test: as above; format: in vivo; conditions: scale 0-100
# From the text: as §1
# Bermudagrass = test: as above; format: in vivo; conditions: scale 0-100
# From the text: as §1
# Pineapple = test: as above; format: in vivo; conditions: scale 0-100
# From the text: as §1
# Perennial ryegrass = test: as above; format: in vivo; conditions: scale 0-100
# From the text: as §1
# Annual bluegrass = test: as above; format: in vivo; conditions: scale 0-100
# From the text: as §1
# Forage fescue = test: as above; format: in vivo; conditions: scale 0-100
# From the text: as §1
# Large crabgrass = test: as above; format: in vivo; conditions: scale 0-100
# From the text: as §1
# Annual ryegrass = test: as above; format: in vivo; conditions: scale 0-100
# From the text: as §1
# Bahiagrass = test: as above; format: in vivo; conditions: scale 0-100
# From the text: as §1
# Climax timothy = test: as above; format: in vivo; conditions: scale 0-100
# From the text: as §1
# Kentucky fescue = test: as above; format: in vivo; conditions: scale 0-100
# From the text: as §1
# Bentgrass = test: as above; format: in vivo; conditions: scale 0-100
# From the text: as §1
# Rape = test: Test 7 postemergence; format: in vivo; conditions: scale 0-100
# Protocol: (§2) Individual 11.4-cm plastic pots filled with planting medium were seeded with rape, wild radish (Raphanus raphanistruna). tansy mustard (Descurainia pinnata), ball mustard (Neslia paniculata), black mustard (Brassica nigra), yellow mustard, brown mustard, lentils, safflower, flax, sunflower, peanut, vetch, alfalfa, field bean, pea, violet (Viola spp), Kochia (Kochia spp), Russian thistle (Salsola spp), Matricaria spp, groundsel (Senecio spp), shepherdspurse (Capsella bursa-pastoris), nightshade (Solanum spp), sowthistle (Sonchus spp), sugar beet, wheat, "Bonanza" barley and "Morex" barley, Kentucky bluegrass (Poa pratensis), red clover (Trifolium pratense), dandelion (Taraxacum spp) and buckhorn plantain (Plantago lanceolata).
# (§3) Plants were treated postemergence with the compound formulated with a non-phytotoxic carrier. Plants were visually rated 18 days after treatment (DAT). Response ratings were based on the scale of 0 to 100 where 0 = no effect, 20 = minimal injury and 100 = complete control.
# Yellow mustard = test: Test 7 postemergence; format: in vivo; conditions: scale 0-100
# Protocol: as §2, §3
# Brown mustard = test: Test 7 postemergence; format: in vivo; conditions: scale 0-100
# Protocol: as §2, §3
# Wheat = test: Test 7 postemergence; format: in vivo; conditions: scale 0-100
# Protocol: as §2, §3
# Vetch = test: Test 7 postemergence; format: in vivo; conditions: scale 0-100
# Protocol: as §2, §3
# Sugar beet = test: Test 7 postemergence; format: in vivo; conditions: scale 0-100
# Protocol: as §2, §3
# Morex barley = test: Test 7 postemergence; format: in vivo; conditions: scale 0-100
# Protocol: as §2, §3
# Alfalfa = test: Test 7 postemergence; format: in vivo; conditions: scale 0-100
# Protocol: as §2, §3
# Onicutal mustard = test: Test 7 postemergence; format: in vivo; conditions: scale 0-100
# Protocol: as §2, §3
smiles,measurement,setting,value
"COC(=O)c1cccnc1S(=O)(=O)NC(=O)Nc1nc(OC)cc(OC)n1 [Compound I, 2-[[(4,6-dimethoxypyrimidin-2-yl)aminocarbonyl]aminosulfonyl]-3-pyridinecarboxylic acid, methyl ester]",Plant Injury Rating 15 DAT,Chickweed,100
same,Injury ratings,Sandbur,100
same,Plant Injury Rating 36 DAT,Purple nutsedge; 16 g/ha,50
same,Plant Injury Rating 36 DAT,Purple nutsedge; 32 g/ha,100
same,Plant Injury Rating 36 DAT,Kentucky bluegrass; 16 g/ha,100
same,Plant Injury Rating 36 DAT,Kentucky bluegrass; 32 g/ha,100
same,Plant Injury Rating 36 DAT,Yellow nutsedge; 16 g/ha,60
same,Plant Injury Rating 36 DAT,Yellow nutsedge; 32 g/ha,100
same,Plant Injury Rating 36 DAT,Galium; 16 g/ha,100
same,Plant Injury Rating 36 DAT,Galium; 32 g/ha,100
same,Plant Injury Rating 36 DAT,Bermudagrass; 16 g/ha,0
same,Plant Injury Rating 36 DAT,Bermudagrass; 32 g/ha,0
same,Plant Injury Rating 36 DAT,Pineapple; 16 g/ha,0
same,Plant Injury Rating 36 DAT,Pineapple; 32 g/ha,0
same,Plant Injury Rating 36 DAT,Perennial ryegrass; 16 g/ha,100
same,Plant Injury Rating 36 DAT,Perennial ryegrass; 32 g/ha,100
same,Plant Injury Rating 36 DAT,Annual bluegrass; 16 g/ha,100
same,Plant Injury Rating 36 DAT,Annual bluegrass; 32 g/ha,100
same,Plant Injury Rating 36 DAT,Forage fescue; 16 g/ha,100
same,Plant Injury Rating 36 DAT,Forage fescue; 32 g/ha,100
same,Plant Injury Rating 36 DAT,Large crabgrass; 16 g/ha,60
same,Plant Injury Rating 36 DAT,Large crabgrass; 32 g/ha,80
same,Plant Injury Rating 36 DAT,Annual ryegrass; 16 g/ha,100
same,Plant Injury Rating 36 DAT,Annual ryegrass; 32 g/ha,100
same,Plant Injury Rating 36 DAT,Bahiagrass; 16 g/ha,70
same,Plant Injury Rating 36 DAT,Bahiagrass; 32 g/ha,100
same,Plant Injury Rating 36 DAT,Climax timothy; 16 g/ha,100
same,Plant Injury Rating 36 DAT,Climax timothy; 32 g/ha,100
same,Plant Injury Rating 36 DAT,Kentucky fescue; 16 g/ha,100
same,Plant Injury Rating 36 DAT,Kentucky fescue; 32 g/ha,100
same,Plant Injury Rating 36 DAT,Bentgrass; 16 g/ha,70
same,Plant Injury Rating 36 DAT,Bentgrass; 32 g/ha,100
same,Plant Injury Rating 18 DAT,Rape; 16 g/ha,80
same,Plant Injury Rating 18 DAT,Rape; 32 g/ha,100
same,Plant Injury Rating 18 DAT,Yellow mustard; 16 g/ha,100
same,Plant Injury Rating 18 DAT,Yellow mustard; 32 g/ha,100
same,Plant Injury Rating 18 DAT,Brown mustard; 16 g/ha,100
same,Plant Injury Rating 18 DAT,Brown mustard; 32 g/ha,100
same,Plant Injury Rating 18 DAT,Wheat; 16 g/ha,100
same,Plant Injury Rating 18 DAT,Wheat; 32 g/ha,100
same,Plant Injury Rating 18 DAT,Vetch; 16 g/ha,100
same,Plant Injury Rating 18 DAT,Vetch; 32 g/ha,100
same,Plant Injury Rating 18 DAT,Sugar beet; 16 g/ha,100
same,Plant Injury Rating 18 DAT,Sugar beet; 32 g/ha,100
same,Plant Injury Rating 18 DAT,Morex barley; 16 g/ha,90
same,Plant Injury Rating 18 DAT,Morex barley; 32 g/ha,100
same,Plant Injury Rating 18 DAT,Alfalfa; 16 g/ha,100
same,Plant Injury Rating 18 DAT,Alfalfa; 32 g/ha,100
same,Plant Injury Rating 18 DAT,Onicutal mustard; 16 g/ha,100
same,Plant Injury Rating 18 DAT,Onicutal mustard; 32 g/ha,100
